Experimental data as given in patent publication US10814010B2, “FOXC2 inhibitor and methods of use thereof” (The Board of Regents of The University of Texas System, priority 2018, dated 2020).

Key:
DU145 cells = test: MTT cell viability assay, DU145; type: cell-based; conditions: single agent
Protocol: In order to determine the EC50 of MC-1-F2, an MTT assay on cell viability was performed in both DU145 and PC3.
(§1) Cell viability was assessed by MTT (3-(4,5-Dimethylthiazol-2-yl)-2,5-Diphenyltetrazolium Bromide) assay 5,000 cells were seeded on a 96-well cell culture plate and were incubated for at least 24 hours prior to drug treatment. The MTT reagent (Fisher Scientific) was added to the culture medium 3 hours prior to the end of compound incubation. The reaction took place in the 37° C. incubator with 5% CO2 for 3 hours. Cell culture medium was then removed from the wells. Cells with the insoluble purple formazan were lysed with DMSO for 10 mins at room temperature, 200 μL per well. Absorbance was read at 570 nm using a plate reader.

PC3 cells = test: MTT cell viability assay, PC3; type: cell-based
Excerpt: Inhibition of EMT in CRPC could lead to a new form of therapeutics to aid once androgen-independence is achieved. However, in order for MC-1-F2 to be considered an effective chemotherapeutic agent, its EC50 in prostate cancer needed to be determined as well as how it compares to other chemotherapeutic agents on the market and whether it is able to inhibit chemoresistance or lower the sensitivity of CRPC to commercially available drugs. In order to determine the EC50 of MC-1-F2, an MTT assay on cell viability was performed in both DU145 and PC3. […] These doses are higher than those encountered with breast cancer cell lines. This is most likely due to the lower FOXC2 expression levels founds in prostate cell lines when compared to the breast cell lines.
as §1

Row | EC50 (PC3 cells; Homo sapiens, PC-3, single agent) [nM] | Structure (SMILES) | effect on cell viability (DU145 cells) | effect on cell viability (PC3 cells; single agent)
1 | – | CNC(=O)c1ccc(N2C(=S)N(c3ccc(C#N)c(C(F)(F)F)c3)C(=O)C2(C)C)cc1F [Enzalutamide, reference compound] | no effect | no effect
2 | 7.6 | CC(=O)O[C@@]12CO[C@@H]1C[C@H](O)[C@@]1(C)C(=O)[C@H](O)C3=C(C)[C@@H](OC(=O)[C@H](O)[C@@H](NC(=O)OC(C)(C)C)c4ccccc4)C[C@@](O)([C@@H](OC(=O)c4ccccc4)[C@H]21)C3(C)C [docetaxel] | – | –
